Measurements: patent US20030224446A1, “Method of predicting cytokine response to tissue injury” (priority 2001, published 2003)
Entries after “also recorded” stand apart in the source; their conditions may differ.

How the values were obtained:
[1] = tested on: wild-type, APOE knockout and APOE4 mice; assay: Systemic toxicity (tremor, seizures, survival) after a single i.p. dose of TMT
[2] = tested on: TNFβ, TNFα, IL-1α, MIP-1α and TGF-β1 mRNA; assay: RNase protection assay, cytokine probe set, cerebellum; format: in vivo; conditions: 8-month-old mice, 24 h
Description: (§1) Food and water were available ad libitum.
Based upon earlier studies with TMT exposure (Bruccoleri et al., 1998, 1999), Rnase protection assays were conducted at 24-h post-TMT. Multiprobe sets were used for simultaneous detection of mRNAs as previously described (Hobbs, 1993; Bruccoleri et al., 1999). The first set, provided by Dr. Iain Campbell (Scripps Research Institute, San Diego, Calif.), contained probes for intercellular adhesion molecule-1 (ICAM-1), inducible nitric oxide synthase (iNOS), an anti-apoptotic TNFα-inducible early response gene (A20), macrophase-1 antigen (Mac-1), a murine acute-phase response gene homologous to the α-1-antichymotrypsin gene (EB22/5), and GFAP as previously described (Campbell et al., 1994). The second set was purchased from Pharmingen (San Diego, Calif.) and contained probes for tumor necrosis factor-β (TNFβ) and -α (TNFα), interleukin-1α (IL-1α), macrophage inflammatory protein-1α (MIP-1α), and transforming growth factor-β1 (TGF-β1). Each probe set contained probes for L32 and GAPDH. A minimum of 4 animals per group was used in each experiment. […] Radioactivity in each fragment was visualized by phosphorimager (Molecular Dynamics, Sunnyvale, Calif.) and relative volume determined using Imagequant (Molecular Dynamics) and normalized relative to the corresponding L32 volume. […]

microglia = assay: Lectin histochemistry for microglia in hippocampus 24 h after TMT; format: in vivo; conditions: 24 h post-TMT, wild-type, APOE knockout and APOE4 mice
Description: as §1
Based upon previous studies with TMT exposure (Bruccoleri et al., 1998, 1999), a minimum of six mice per group were examined for morphological changes in the hippocampus 24 h following injection. Animals were lightly anesthetized with CO2 and decapitated and brains were removed from the cranium, bisected in the midsagittal plane, and immersion-fixed in 4% paragormaldehyde/0.1 M phosphate-buffered saline (PBS; pH 7.2) overnight at room temperature. Eight-micron paraffin-embedded sections were stained by routine hematoxylin and eosin (H&E) to visualize tissue cellularity. Astrocytes were identified by immunohistochemistry using polyclonal glial fibrillary acidic protein (GFAP) antibodies (Dako Corp., Carpinteria, Calif.). Briefly, rehydrated sections were treated with 3% H2O2, subjected to heat-induced epitope retrieval (HIER) using a decloaking chamber (Biocare Medical, Walnut Creek, Calif.), and incubated with nonimmune goat serum (1.5:100 dilution in 1% BSA/PBS) prior to incubation with rabbit anti-rat GFAP (1:2000 in 1:1 solution of 1% BSA and 1% powered milk in PBS). Sections were incubated with a secondary IgG antibody followed by ABC (avidin-biotin complex) reagent (Vectastain Elite, Vector Laboratories, Burlingame, Calif.) and detected by 3,3′-diaminobenzidine tetrahydrochloride (DAB) substrate (Sigma-Aldrich Research, St. Louis, Mo.). […]

[3] = tested on: ICAM-1, iNOS, A20, Mac-1, EB22/5 and GFAP mRNA; assay: RNase protection assay, host-response gene probe set, hippocampus; format: in vivo, mice; conditions: 24 h; for mRNA levels for Mac-1, A20, and iNOS: any group of mice
Description: as §1
(§2) Based upon earlier studies with TMT exposure (Bruccoleri et al., 1998, 1999), Rnase protection assays were conducted at 24-h post-TMT. Multiprobe sets were used for simultaneous detection of mRNAs as previously described (Hobbs, 1993; Bruccoleri et al., 1999). The first set, provided by Dr. Iain Campbell (Scripps Research Institute, San Diego, Calif.), contained probes for intercellular adhesion molecule-1 (ICAM-1), inducible nitric oxide synthase (iNOS), an anti-apoptotic TNFα-inducible early response gene (A20), macrophase-1 antigen (Mac-1), a murine acute-phase response gene homologous to the α-1-antichymotrypsin gene (EB22/5), and GFAP as previously described (Campbell et al., 1994). The second set was purchased from Pharmingen (San Diego, Calif.) and contained probes for tumor necrosis factor-β (TNFβ) and -α (TNFα), interleukin-1α (IL-1α), macrophage inflammatory protein-1α (MIP-1α), and transforming growth factor-β1 (TGF-β1). Each probe set contained probes for L32 and GAPDH. A minimum of 4 animals per group was used in each experiment. Individual fragments were separated by 5% acrylamide/8 M urea sequencing gel electrophoresis and visualized by autoradiography (Hyperfilm-MP film; Amersham, Buckinghamshire, U.K.). Radioactivity in each fragment was visualized by phosphorimager (Molecular Dynamics, Sunnyvale, Calif.) and relative volume determined using Imagequant (Molecular Dynamics) and normalized relative to the corresponding L32 volume.
(§3) Subsequent independent group mean comparisons between each saline-injected genotype or between TMT and saline-injected mice, within each genotype, were conducted using individual one-way ANOVAs for each gene transcript. A statistical significance level was set at p<0.05.

[4] = tested on: TNFβ, TNFα, IL-1α, MIP-1α and TGF-β1 mRNA; assay: RNase protection assay, cytokine probe set, hippocampus; format: in vivo, mice; conditions: for increase of MEP-1α mRNA levels: vs saline
Description: as §1, §2, §3

[5] = tested on: astrocytes (GFAP immunoreactivity); assay: GFAP immunohistochemistry of astrocytes in hippocampus 24 h after TMT; format: in vivo, mice
Description: as §1
(§4) Based upon previous studies with TMT exposure (Bruccoleri et al., 1998, 1999), a minimum of six mice per group were examined for morphological changes in the hippocampus 24 h following injection. Animals were lightly anesthetized with CO2 and decapitated and brains were removed from the cranium, bisected in the midsagittal plane, and immersion-fixed in 4% paragormaldehyde/0.1 M phosphate-buffered saline (PBS; pH 7.2) overnight at room temperature. Eight-micron paraffin-embedded sections were stained by routine hematoxylin and eosin (H&E) to visualize tissue cellularity. Astrocytes were identified by immunohistochemistry using polyclonal glial fibrillary acidic protein (GFAP) antibodies (Dako Corp., Carpinteria, Calif.). Briefly, rehydrated sections were treated with 3% H2O2, subjected to heat-induced epitope retrieval (HIER) using a decloaking chamber (Biocare Medical, Walnut Creek, Calif.), and incubated with nonimmune goat serum (1.5:100 dilution in 1% BSA/PBS) prior to incubation with rabbit anti-rat GFAP (1:2000 in 1:1 solution of 1% BSA and 1% powered milk in PBS). Sections were incubated with a secondary IgG antibody followed by ABC (avidin-biotin complex) reagent (Vectastain Elite, Vector Laboratories, Burlingame, Calif.) and detected by 3,3′-diaminobenzidine tetrahydrochloride (DAB) substrate (Sigma-Aldrich Research, St. Louis, Mo.). Microglia cells were identified by lectin binding (Bandeiraea Simplicifolia BS-4, 1:10; Sigma Chemical Co.; St. Louis, Mo.) by the method of Streit and Kreutzberg (1987) using HIER. Sites containing microglia bound peroxidase-lectin conjugates were visualized by DAB-H2O2 substrate containing […].

[6] = tested on: hippocampal dentate granule cells; assay: Hematoxylin and eosin staining of hippocampus 24 h after TMT; format: in vivo, mice
Description: as §1, §4

[7] = tested on: TNFβ, TNFα, IL-1α, MIP-1α and TGF-β1 mRNA; assay: RNase protection assay, cytokine probe set, cortex; format: in vivo, mice; conditions: 24 h
Description: as §1, §2, §3
Given the genotype-specific effects in the hippocampus of 8-month-old mice following TMT, additional brain regions were examined. In the cortex, TMT exposure elevated mRNA levels for TNFα and TGF-β1 in the wild-type mice with no elevation seen in the APOE knockout or APOE4 mice (FIG. 7). MIP-1α mRNA levels in both wild-type and APOE4 mice were elevated by TMT with no elevation in APOE knockout mice (FIG. 7).

[8] = 21-day-old wild-type and APOE knockout mice
[9] = 8-month-old APOE knockout mice, hippocampus, 24 h
[10] = 8-month-old, all animals, hippocampus, 24 h

In the case of `[CH3][Sn]([CH3])([CH3])[OH]` [TMT, trimethyltin hydroxide], the “decrease in survival rate” value ([1]; APOE4 mice, 8 months of age, compared to APOE knockout and wild-type) is reported as roughly 40%, the “decrease in survival rate” value ([1]; APOE4 mice, 21 days of age, 2.0 mg/kg i.p.) is reported as 20% and the “decrease in survival rate” value ([1]; APOE knockout mice, 21 days of age, 2.0 mg/kg i.p.) is reported as 10%. The aggressiveness or seizures ([1]; any of the mice exposed to TMT) was “No signs of aggressiveness or seizures”, the “mRNA levels for TNFβ, TNFα, IL-1α, MIP-1α, and TGF-β1” value [2] was “no effect” and the “reactive/activated microglia by lectin histochemistry” value (microglia) was “did not detect reactive/activated microglia”. The “EB22 mRNA levels” value ([3]; 8-month-old APOE knockout and APOE4 mice) was “elevation”, the “EB22 mRNA levels” value ([3]; 8-month-old wild-type mice) was “No elevation” and the “GFAP mRNA levels” value ([3]; 8-month-old, all groups of mice) was “elevation”. The “mRNA levels for Mac-1, A20, and iNOS” value ([3]; 8-month-old) was “not altered”, the “EB22 mRNA levels” value ([3]; 21-day-old APOE4 mice) was “no elevation” and the “EB22 mRNA levels” value [3, 8] was “significant (p<0.05) elevation”. For the same compound, the “GFAP mRNA levels” value [3, 8] was “significantly elevated”, the “ICAM-1 mRNA levels” value ([3]; 21-day-old, all mice, vs saline) was “slight but significant elevation” and the “mRNA levels for Mac-1, A20, and iNOS” value ([3]; 21-day-old) was “not altered”. For the same compound, the “increase of MEP-1α mRNA levels” value ([4]; 8-month-old APOE4 mice, hippocampus, 24 h) was 3 fold, the “elevation in MIP-1α mRNA compared to the response in wild-type mice” value ([4]; 8-month-old APOE knockout mice) was “less elevation” and the “TNFα mRNA level” value [4, 9] was “distinct lack of elevation; also recorded: No elevation”. The “increase of MEP-1α mRNA levels” value [4, 9] was 1.3 fold, the “TNFα mRNA levels” value ([4]; 8-month-old wild-type and APOE4 mice, hippocampus, 24 h) was “elevated” and the “increase of MEP-1α mRNA levels” value ([4]; 8-month-old wild-type mice, hippocampus, 24 h) was 3.5 fold. The “MIP-1α mRNA levels relative to saline-injected mice” value [4, 10] was “significant (p<0.05) elevations”, the “mRNA levels for TNFβ, IL-1α, or TGF-β1” value [4, 10] was “No significant elevations” and the “IL-1α mRNA levels” value ([4]; 21-day-old APOE knockout and APOE4 mice, hippocampus, 24 h) was “elevated”. For the same compound, the “TNFα and TGF-β1 mRNA levels” value ([4]; 21-day-old wild-type and APOE knockout mice, hippocampus, 24 h) was “significantly elevated”, the “MIP-1α mRNA levels” value ([4]; 21-day-old, all mice, hippocampus, 24 h) was “elevations” and the “induction of TNFα, IL-1α, and MIP-1α by TMT” value ([4]; APOE knockout mice (discussion)) was “lack of an induction”. The “induction of TGF-β1” value ([4]; APOE knockout mice or those containing the E4 allele, following TMT (discussion)) was “lack of an induction”, the “astrocyte morphology (FIG. 2)” value ([5]; 24 h after TMT 2.0 mg/kg ip, compared with saline) was “thick cell bodies and processes characteristic of astrocyte reactivity” and the “GFAP immunoreactivity in astrocytes” value ([5]; APOE knockout and APOE4 mice, 24 h after TMT) was “slight increase in GFAP immunoreactivity”. For the same compound, the GFAP immunostaining ([5]; wild-type mice, 24 h after TMT) was “little change”, the “neuronal necrosis in dentate granule cells (FIG. 1)” value ([6]; TMT-exposed wild-type, APOE knockout and APOE4 mice, 2 mg/kg ip, 24 h) was “Severe neuronal necrosis” and the “neuronal cell death in the hippocampus (dentate granule cells)” value ([6]; wild-type mice, 24 h after TMT) was “neuronal cell death was evident”. The “neurons of the pyramidal cell layer” value ([6]; wild-type mice, 24 h after TMT) was “no indication of neuronal cell death”, the “MIP-1α mRNA levels” value ([7]; 8-month-old APOE knockout mice) was “no elevation” and the “mRNA levels for TNFα and TGF-β1” value ([7]; 8-month-old APOE knockout or APOE4 mice) was “no elevation”. The “MIP-1α mRNA levels” value ([7]; 8-month-old wild-type and APOE4 mice) was “elevated” and the “mRNA levels for TNFα and TGF-β1” value ([7]; 8-month-old wild-type mice) was “elevated”.
